Results: patent US20220088016A1, “CANCER TREATMENT USING MULTI-TARGETED KINASE INHIBITOR IN COMBINATION OF PROTEIN KINASE BIOMARKERS” (ZHEJIANG CROWNMAB BIOTECH CO. LTD., priority 2019, published 2022)

How the values were obtained:
[1] = molecular target: ABL1 (T315I)-phosphorylated (Homo sapiens, UniProt P00519, T315I); test: Kinase profiling; type: binding; conditions: read-out: % Ctrl @ 1000 nM
ALK (C1156Y) = ALK (C1156Y) (Homo sapiens, UniProt Q9UM73, C1156Y); test: Kinase profiling; type: binding; conditions: read-out: % Ctrl @ 1000 nM
BMPR1A = BMPR1A (Homo sapiens, UniProt P36894); test: Kinase profiling; type: binding; conditions: read-out: % Ctrl @ 1000 nM
CASK = CASK (Homo sapiens, UniProt O14936); test: Kinase profiling; type: binding; conditions: read-out: % Ctrl @ 1000 nM
ERK2 = ERK2 (Homo sapiens, UniProt P28482); test: Kinase profiling; type: binding; conditions: read-out: % Ctrl @ 1000 nM
FGFR1 = FGFR1 (Homo sapiens, UniProt P11362); test: Kinase profiling; type: binding; conditions: read-out: % Ctrl @ 1000 nM
FGFR3 = FGFR3 (Homo sapiens, UniProt P22607); test: Kinase profiling; type: binding; conditions: read-out: % Ctrl @ 1000 nM
LATS1 = LATS1 (Homo sapiens, UniProt O95835); test: Kinase profiling; type: binding; conditions: read-out: % Ctrl @ 1000 nM
MEK3 = molecular target: T1, MEK3 (Homo sapiens, UniProt P46734); test: Kinase profiling; type: binding; conditions: read-out: % Ctrl @ 1000 nM
T1 construct: T7 phage fusion (stated for most kinases of the panel only); made in house; host or cells: T7 phage in E. coli (BL21-derived) or HEK-293 cells

RET (V804L) = RET (V804L) (Homo sapiens, UniProt P07949, V804L); test: Kinase profiling; type: binding; conditions: read-out: % Ctrl @ 1000 nM
RET (V804M) = RET (V804M) (Homo sapiens, UniProt P07949, V804M); test: Kinase profiling; type: binding; conditions: read-out: % Ctrl @ 1000 nM
SRPK2 = SRPK2 (Homo sapiens, UniProt P78362); test: Kinase profiling; type: binding; conditions: read-out: % Ctrl @ 1000 nM
TAOK2 = TAOK2 (Homo sapiens, UniProt Q9UL54); test: Kinase profiling; type: binding; conditions: read-out: % Ctrl @ 1000 nM
YANK2 = YANK2 (Homo sapiens, UniProt Q9NY57); test: Kinase profiling; type: binding; conditions: read-out: % Ctrl @ 1000 nM
ZAP70 = ZAP70 (Homo sapiens, UniProt P43403); test: Kinase profiling; type: binding; conditions: read-out: % Ctrl @ 1000 nM
CDK2/cyclinE (h) = molecular target: T2, CDK2/cyclinE (h) (Homo sapiens, UniProt P24941); test: Kinase IC50 (Eurofins KinaseProfiler); type: biochemical
T2 construct: purchased Eurofins (KinaseProfiler service)
Method: (§1) CBT-102 were tested against each of the selected kinases using the Eurofins standard KinaseProfder assays and following the relevant standard operating procedures. The required volume of the 50× stock of test compound (CBT-102) was added to the assay well, before a reaction mix containing the enzyme and substrate was added. The reaction was initiated by the addition of ATP at the selected concentration. There was no pre-incubation of the compound with the enzyme/substrate mix prior to ATP addition.
(§2) Data are handled using a custom-built in-house analysis software. Results are expressed as kinase activity remaining, as a percentage of the DMSO control. This is calculated using the following formula: […]
(§3) For IC50 determinations, data are analyzed using XLFit version 5.3 (ID Business Solutions).

CDKL2 (h) = molecular target: T3, CDKL2 (h) (Homo sapiens, UniProt Q92772); test: Kinase IC50 (Eurofins KinaseProfiler); type: biochemical
T3 construct: purchased Eurofins (KinaseProfiler service)
Method: as §1, §2, §3

Flt1 (h) = molecular target: T4, Flt1 (h) (Homo sapiens, UniProt P17948); test: Kinase IC50 (Eurofins KinaseProfiler); type: biochemical
T4 construct: purchased Eurofins (KinaseProfiler service)
Method: as §1, §2, §3

Flt4 (h) = molecular target: T5, Flt4 (h) (Homo sapiens, UniProt P35916); test: Kinase IC50 (Eurofins KinaseProfiler); type: biochemical
T5 construct: purchased Eurofins (KinaseProfiler service)
Method: as §1, §2, §3

JAK2 (h) = molecular target: T6, JAK2 (h) (Homo sapiens, UniProt O60674); test: Kinase IC50 (Eurofins KinaseProfiler); type: biochemical
T6 construct: purchased Eurofins (KinaseProfiler service)
Method: as §1, §2, §3

LOK (h) = molecular target: T7, LOK (h) (Homo sapiens, UniProt O94804); test: Kinase IC50 (Eurofins KinaseProfiler); type: biochemical
T7 construct: purchased Eurofins (KinaseProfiler service)
Method: as §1, §2, §3

Lck (h) = molecular target: T8, Lck (h) (Homo sapiens, UniProt P06239); test: Kinase IC50 (Eurofins KinaseProfiler); type: biochemical
T8 construct: purchased Eurofins (KinaseProfiler service)
Method: as §1, §2, §3

NEK2 (h) = molecular target: T9, NEK2 (h) (Homo sapiens, UniProt P51955); test: Kinase IC50 (Eurofins KinaseProfiler); type: biochemical
T9 construct: purchased Eurofins (KinaseProfiler service)
Method: as §1, §2, §3

PTK5 (h) = molecular target: T10, PTK5 (h) (Homo sapiens, UniProt P42685); test: Kinase IC50 (Eurofins KinaseProfiler); type: biochemical
T10 construct: purchased Eurofins
Method: as §1, §2, §3

SAPK3 (h) = molecular target: T11, SAPK3 (h) (Homo sapiens, UniProt P53778); test: Kinase IC50 (Eurofins KinaseProfiler); type: biochemical
T11 construct: purchased Eurofins
Method: as §1, §2, §3

Syk (h) = molecular target: T12, Syk (h) (Homo sapiens, UniProt P43405); test: Kinase IC50 (Eurofins KinaseProfiler); type: biochemical
T12 construct: purchased Eurofins
Method: as §1, §2, §3

TAK1 (h) = molecular target: T13, TAK1 (h) (Homo sapiens, UniProt O43318); test: Kinase IC50 (Eurofins KinaseProfiler); type: biochemical
T13 construct: purchased Eurofins
Method: as §1, §2, §3

Wee1 (h) = molecular target: T14, Wee1 (h) (Homo sapiens, UniProt P30291); test: Kinase IC50 (Eurofins KinaseProfiler); type: biochemical
T14 construct: purchased Eurofins
Method: as §1, §2, §3

c-RAF (h) = molecular target: T15, c-RAF (h) (Homo sapiens, UniProt P04049); test: Kinase IC50 (Eurofins KinaseProfiler); type: biochemical
T15 construct: purchased Eurofins (KinaseProfiler service)
Method: as §1, §2, §3

cKit (D816V) (h) = molecular target: T16, cKit (D816V) (h) (Homo sapiens, UniProt P10721, D816V); test: Kinase IC50 (Eurofins KinaseProfiler); type: biochemical
T16 construct: purchased Eurofins (KinaseProfiler service)
Method: as §1, §2, §3

cKit (V560G) (h) = molecular target: T17, cKit (V560G) (h) (Homo sapiens, UniProt P10721, V560G); test: Kinase IC50 (Eurofins KinaseProfiler); type: biochemical
T17 construct: purchased Eurofins (KinaseProfiler service)
Method: as §1, §2, §3

cSRC (h) = molecular target: T18, cSRC (h) (Homo sapiens, UniProt P12931); test: Kinase IC50 (Eurofins KinaseProfiler); type: biochemical
T18 construct: purchased Eurofins (KinaseProfiler service)
Method: as §1, §2, §3

[2] = system: F4-80 (surface marker of macrophages); test: F4-80 IHC test in MC-38 tumor; parameters: species or system mouse; conditions: end of in vivo efficacy trial; vs vehicle group
Method: MC38 tumor tissues were collected at the end of the in vivo efficacy trial. The tumor tissue was then embedded in paraffin. The expression of CD3/CD4/CD8/F4-80 were tested by immunohistochemistry stain.

T1 sequence (P46734 whole entry, the tested form may be a part): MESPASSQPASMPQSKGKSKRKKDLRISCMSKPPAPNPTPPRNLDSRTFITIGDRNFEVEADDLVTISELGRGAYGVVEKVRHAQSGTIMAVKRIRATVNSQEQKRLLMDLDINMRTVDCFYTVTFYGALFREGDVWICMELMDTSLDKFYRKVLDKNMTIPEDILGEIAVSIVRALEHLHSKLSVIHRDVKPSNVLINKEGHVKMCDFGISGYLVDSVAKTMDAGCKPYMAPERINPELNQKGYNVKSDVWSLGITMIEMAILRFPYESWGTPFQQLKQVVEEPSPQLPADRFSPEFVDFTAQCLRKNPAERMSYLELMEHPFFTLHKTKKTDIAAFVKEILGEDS
T18 sequence (P12931 whole entry): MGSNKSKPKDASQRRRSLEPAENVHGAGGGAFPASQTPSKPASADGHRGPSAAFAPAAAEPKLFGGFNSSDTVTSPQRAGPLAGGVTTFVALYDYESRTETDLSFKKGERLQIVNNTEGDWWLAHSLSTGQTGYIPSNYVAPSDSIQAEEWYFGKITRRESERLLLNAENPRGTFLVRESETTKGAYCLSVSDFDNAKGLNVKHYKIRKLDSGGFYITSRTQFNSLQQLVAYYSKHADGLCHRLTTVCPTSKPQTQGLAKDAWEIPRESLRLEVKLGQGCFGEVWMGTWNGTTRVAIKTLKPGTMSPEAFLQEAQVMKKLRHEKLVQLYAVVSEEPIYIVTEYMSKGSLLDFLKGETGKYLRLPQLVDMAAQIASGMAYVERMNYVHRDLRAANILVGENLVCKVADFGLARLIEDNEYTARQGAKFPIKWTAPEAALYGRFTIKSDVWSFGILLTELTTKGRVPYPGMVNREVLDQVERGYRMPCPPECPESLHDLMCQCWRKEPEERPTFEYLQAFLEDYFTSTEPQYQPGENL
Sequence of CASK (O14936 whole entry): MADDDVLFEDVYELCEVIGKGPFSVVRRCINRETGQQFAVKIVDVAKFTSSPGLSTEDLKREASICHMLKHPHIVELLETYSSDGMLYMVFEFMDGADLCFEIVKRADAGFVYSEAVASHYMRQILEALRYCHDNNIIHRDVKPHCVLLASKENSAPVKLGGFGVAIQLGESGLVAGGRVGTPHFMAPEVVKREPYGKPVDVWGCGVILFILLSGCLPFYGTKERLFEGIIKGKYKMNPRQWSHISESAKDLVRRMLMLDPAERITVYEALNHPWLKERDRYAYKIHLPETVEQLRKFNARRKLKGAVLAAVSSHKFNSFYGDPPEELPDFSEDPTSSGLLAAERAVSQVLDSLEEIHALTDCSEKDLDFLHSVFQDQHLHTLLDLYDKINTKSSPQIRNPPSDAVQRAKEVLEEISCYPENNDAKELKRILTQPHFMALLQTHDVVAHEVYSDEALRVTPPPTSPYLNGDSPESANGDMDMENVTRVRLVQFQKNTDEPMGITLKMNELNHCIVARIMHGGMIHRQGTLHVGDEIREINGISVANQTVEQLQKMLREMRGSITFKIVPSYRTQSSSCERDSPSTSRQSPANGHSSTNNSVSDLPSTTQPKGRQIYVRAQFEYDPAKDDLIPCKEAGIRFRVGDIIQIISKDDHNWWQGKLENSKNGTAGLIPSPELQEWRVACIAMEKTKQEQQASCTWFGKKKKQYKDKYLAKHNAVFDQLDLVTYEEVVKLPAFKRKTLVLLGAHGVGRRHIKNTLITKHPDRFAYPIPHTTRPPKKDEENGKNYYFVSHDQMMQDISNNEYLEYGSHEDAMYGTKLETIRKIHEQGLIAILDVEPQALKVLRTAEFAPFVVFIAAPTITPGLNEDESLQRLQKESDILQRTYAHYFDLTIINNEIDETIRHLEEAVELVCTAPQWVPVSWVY
T4 sequence (P17948 27-1338): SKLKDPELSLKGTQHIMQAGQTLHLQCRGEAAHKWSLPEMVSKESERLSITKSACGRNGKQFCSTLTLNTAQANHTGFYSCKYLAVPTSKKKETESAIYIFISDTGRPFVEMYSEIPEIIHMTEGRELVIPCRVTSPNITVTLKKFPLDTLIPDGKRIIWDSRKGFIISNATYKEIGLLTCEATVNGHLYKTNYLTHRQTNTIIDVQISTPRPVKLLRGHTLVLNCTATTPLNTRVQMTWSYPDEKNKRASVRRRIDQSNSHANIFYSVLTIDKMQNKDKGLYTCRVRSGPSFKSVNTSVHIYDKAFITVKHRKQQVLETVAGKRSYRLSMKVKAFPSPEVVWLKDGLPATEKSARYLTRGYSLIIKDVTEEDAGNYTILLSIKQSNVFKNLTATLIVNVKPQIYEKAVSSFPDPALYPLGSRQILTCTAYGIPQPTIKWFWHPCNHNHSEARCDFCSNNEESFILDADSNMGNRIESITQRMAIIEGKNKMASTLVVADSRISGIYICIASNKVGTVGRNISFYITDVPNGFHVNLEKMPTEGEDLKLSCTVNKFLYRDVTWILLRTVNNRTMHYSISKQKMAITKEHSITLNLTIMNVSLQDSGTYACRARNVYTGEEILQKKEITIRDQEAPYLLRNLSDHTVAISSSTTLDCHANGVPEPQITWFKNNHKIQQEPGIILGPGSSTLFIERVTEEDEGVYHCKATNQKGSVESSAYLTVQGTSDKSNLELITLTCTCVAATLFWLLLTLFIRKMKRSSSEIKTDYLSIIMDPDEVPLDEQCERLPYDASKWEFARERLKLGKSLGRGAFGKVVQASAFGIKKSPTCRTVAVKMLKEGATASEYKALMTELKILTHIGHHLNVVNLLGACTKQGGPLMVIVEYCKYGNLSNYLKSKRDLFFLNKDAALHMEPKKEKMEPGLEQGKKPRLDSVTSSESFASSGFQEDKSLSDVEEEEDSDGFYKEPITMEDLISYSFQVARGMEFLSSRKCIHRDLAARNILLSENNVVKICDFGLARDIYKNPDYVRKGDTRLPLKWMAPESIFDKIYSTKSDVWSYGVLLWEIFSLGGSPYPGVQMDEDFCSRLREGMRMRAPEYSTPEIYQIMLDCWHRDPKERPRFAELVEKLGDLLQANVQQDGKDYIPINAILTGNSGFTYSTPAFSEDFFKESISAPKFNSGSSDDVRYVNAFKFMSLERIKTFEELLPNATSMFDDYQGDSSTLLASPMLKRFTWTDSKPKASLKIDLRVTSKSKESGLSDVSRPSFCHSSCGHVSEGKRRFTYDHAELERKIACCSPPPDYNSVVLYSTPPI
T14 sequence (P30291 whole entry): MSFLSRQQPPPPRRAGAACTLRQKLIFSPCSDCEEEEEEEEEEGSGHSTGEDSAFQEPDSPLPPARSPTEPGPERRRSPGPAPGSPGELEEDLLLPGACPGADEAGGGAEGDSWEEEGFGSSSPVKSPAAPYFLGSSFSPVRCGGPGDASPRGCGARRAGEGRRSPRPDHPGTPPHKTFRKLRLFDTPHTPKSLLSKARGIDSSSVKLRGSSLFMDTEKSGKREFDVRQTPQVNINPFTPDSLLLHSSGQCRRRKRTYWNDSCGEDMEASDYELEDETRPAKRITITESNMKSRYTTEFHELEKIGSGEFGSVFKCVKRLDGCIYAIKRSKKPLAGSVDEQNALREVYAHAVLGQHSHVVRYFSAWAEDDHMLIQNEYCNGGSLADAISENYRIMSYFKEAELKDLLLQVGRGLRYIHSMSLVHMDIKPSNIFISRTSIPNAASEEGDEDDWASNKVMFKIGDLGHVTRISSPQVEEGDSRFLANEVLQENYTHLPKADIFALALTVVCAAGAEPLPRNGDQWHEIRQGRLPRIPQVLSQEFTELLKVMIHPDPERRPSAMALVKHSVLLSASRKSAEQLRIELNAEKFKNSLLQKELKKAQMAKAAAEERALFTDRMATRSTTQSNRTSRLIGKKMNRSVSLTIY
T7 sequence (O94804 whole entry): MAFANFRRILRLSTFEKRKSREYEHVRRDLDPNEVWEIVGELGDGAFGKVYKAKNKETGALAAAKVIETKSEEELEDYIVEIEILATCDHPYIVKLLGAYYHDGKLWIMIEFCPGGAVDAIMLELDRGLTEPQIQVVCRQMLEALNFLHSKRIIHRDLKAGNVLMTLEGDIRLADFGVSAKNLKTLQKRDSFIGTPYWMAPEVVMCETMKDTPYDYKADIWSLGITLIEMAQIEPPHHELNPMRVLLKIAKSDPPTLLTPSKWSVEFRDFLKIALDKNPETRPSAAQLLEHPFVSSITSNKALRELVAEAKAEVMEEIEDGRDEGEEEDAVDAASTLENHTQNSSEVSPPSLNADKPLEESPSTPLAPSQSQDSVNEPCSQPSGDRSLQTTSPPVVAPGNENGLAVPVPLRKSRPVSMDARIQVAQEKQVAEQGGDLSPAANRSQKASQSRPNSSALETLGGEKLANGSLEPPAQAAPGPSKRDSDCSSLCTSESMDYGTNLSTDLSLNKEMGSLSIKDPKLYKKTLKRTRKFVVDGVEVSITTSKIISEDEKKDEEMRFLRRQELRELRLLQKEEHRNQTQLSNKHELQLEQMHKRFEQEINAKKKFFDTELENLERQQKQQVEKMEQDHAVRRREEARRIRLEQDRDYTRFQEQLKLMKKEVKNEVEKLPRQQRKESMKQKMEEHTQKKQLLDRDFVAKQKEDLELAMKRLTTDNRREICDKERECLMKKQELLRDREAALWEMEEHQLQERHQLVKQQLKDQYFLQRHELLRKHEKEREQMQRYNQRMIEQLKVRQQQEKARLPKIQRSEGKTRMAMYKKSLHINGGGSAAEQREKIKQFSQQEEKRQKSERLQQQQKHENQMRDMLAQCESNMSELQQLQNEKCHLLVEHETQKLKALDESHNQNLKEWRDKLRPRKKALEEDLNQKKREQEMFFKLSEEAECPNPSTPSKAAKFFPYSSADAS
T13 sequence (O43318 1-303 limits assumed): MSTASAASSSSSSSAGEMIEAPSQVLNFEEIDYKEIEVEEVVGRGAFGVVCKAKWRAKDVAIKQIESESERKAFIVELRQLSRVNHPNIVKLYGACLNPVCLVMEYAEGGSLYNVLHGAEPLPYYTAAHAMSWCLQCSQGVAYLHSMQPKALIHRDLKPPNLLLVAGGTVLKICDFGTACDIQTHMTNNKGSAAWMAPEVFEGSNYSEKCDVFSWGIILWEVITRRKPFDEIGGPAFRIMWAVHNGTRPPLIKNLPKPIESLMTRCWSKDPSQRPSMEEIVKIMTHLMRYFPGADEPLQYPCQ

Cc1cc(Oc2cc(NC(=O)C3CC3)ncn2)ccc1NC(=O)Nc1ccc(Cl)c(C(F)(F)F)c1 [CBT-102]
remaining activity at 1 µM [1]: 51% | remaining activity at 1 µM (ALK (C1156Y)): 97% | remaining activity at 1 µM (BMPR1A): 54% | remaining activity at 1 µM (CASK): 98% | remaining activity at 1 µM (ERK2): 97% | remaining activity at 1 µM (FGFR1): 61% | remaining activity at 1 µM (FGFR3): 87% | remaining activity at 1 µM (LATS1): 80% | remaining activity at 1 µM (MEK3): 90% | remaining activity at 1 µM (RET (V804L)): 42% | remaining activity at 1 µM (RET (V804M)): 3.3% | remaining activity at 1 µM (SRPK2): 100% | remaining activity at 1 µM (TAOK2): 23% | remaining activity at 1 µM (YANK2): 100% | remaining activity at 1 µM (ZAP70): 90% | IC50 (CDK2/cyclinE (h)): > 10 µM | IC50 (CDKL2 (h)): 0.037 µM | IC50 (Flt1 (h)): 0.021 µM | IC50 (Flt4 (h)): 0.008 µM | IC50 (JAK2 (h)): > 10 µM | IC50 (LOK (h)): 1.09 µM | IC50 (Lck (h)): 1.34 µM | IC50 (NEK2 (h)): > 10 µM | IC50 (PTK5 (h)): 0.052 µM | IC50 (SAPK3 (h)): 1.2 µM | IC50 (Syk (h)): > 10 µM | IC50 (TAK1 (h)): 0.481 µM | IC50 (Wee1 (h)): > 10 µM | IC50 (c-RAF (h)): 0.031 µM | IC50 (cKit (D816V) (h)): > 10 µM | IC50 (cKit (V560G) (h)): 0.038 µM | IC50 (cSRC (h)): 2.5 µM | F4-80 IHC score (%) in MC-38 tumor tissue [2]: significantly reduced
